According to patent publication US9499554B2, “Anti-influenza compositions and methods” (priority 2013, dated 2016):
≈ marks a conversion by molar mass, not a printed value. Like-named read-outs stand apart in the source and are kept apart here.

What was measured:
[1] = tested on: Influenza A H5N1 VN/1203/2004 Hybrid (on H1N1 backbone); test: microbe, parasite or virus in culture; type: cell-based; conditions: Influenza A virus, read-out: EC50, Visual CPE Assay
[2] = tested on: Influenza A H5N1 VN/1203/2004 Hybrid (on H1N1 backbone); test: microbe, parasite or virus in culture; type: cell-based; conditions: Influenza A virus

Structure (SMILES): Nc1ncnc2c([C@@H]3N[C@H](CO)[C@@H](O)[C@H]3O)c[nH]c12 [compound 1, (2S,3S,4R,5R)-2-(4-Amino-5H-pyrrolo[3,2-d]pyrimidin-7-yl)-5-(hydroxymethyl)pyrrolidine-3,4-diol]
- EC50 [1]: 0.63 µg/mL (≈ 2.37 µM)
- EC50 ([2]; MDCK, read-out: EC50, antiviral activity in MDCK cells): 0.99 µg/mL (≈ 3.73 µM)
- EC50 ([2]; read-out: EC50, Neutral Red Uptake Assay): 0.99 µg/mL (≈ 3.73 µM)
